Experimental data as given in patent US9295627B2 (priority 2011, dated 2016).
Read-outs that look alike come from different tables or passages of the source.

Assays:
Acute toxicity test = details: female, BALB/c, mouse, in vivo, ip
Protocol: Two grams of any one of the adenosine N1-oxide obtained in Experiment 1, the 3′-glucosyladesonine N1-oxide and 5′-glucosyladenosine N1-oxide obtained in Experiment 2, and the 5′-adenosine diphosphate N1-oxide and 5′-adenosine triphosphate N1-oxide obtained in Experiment 3 was dissolved in 100 mL of D-PBS (Dulbecco's Phosphate-Buffered Salines). The resulting solution was intraperitoneally administered to 10 BALB/c female mice, six-week-old, with an average body mass of 20 g each, commercialized by Charles River Laboratories Japan, Inc., Kanagawa, Japan, at a dose of one milliliter/head, followed by observation for 24 hours. As a control, only D-PBS was intraperitoneally administered to 10 BALB/c female mice, six-week-old, with an average body mass of 20 g each, commercialized by Charles River Laboratories Japan, Inc., Kanagawa, Japan, at a dose of one milliliter/head, followed by observation for 24 hours. Thereafter, each mouse was collected her blood and urine for measuring clinical test items as indexes for renal and liver functions. […] As a result, adenosine N1-oxide, 3′-glucosyladenosine N1-oxide, 5‘-glucosyladenosine N1-oxide, 5’-adenosinme diphosphate N1-oxide, and 5′-adenosine triphosphate N1-oxide have an LD50 of at least 1,000 mg/kg, respectively. Thus, these compounds are judged as substances safely administrable to humans.

[1] = Solubility in solvents such as water; type: physicochemical
[2] = tested on: medium periodontal diseases; assay: Volunteer test 2: tooth mobility after mouthwash use, concentration series; type: in vivo, human; details: aqueous mouthwash, % by mass, Experiment 6
Source text: • A: A distinct improvement in tooth mobility is observed on a tooth mobility test (or periodontometry) with a pincette compared with that before initiating the test; • B: Somewhat improvement in tooth mobility is observed on a tooth mobility test with a pincette compared with that before initiating the test; and • C: No improvement or rather aggravation is observed on a tooth mobility test with a pincette compared with that before initiating the test.
For adenosine N1-oxide, which had marked the highest improvement effect on periodontal diseases in Experiment 5, it was examined in more detail for its improvement action on periodontal diseases: Eight females, 20- to 30-year-old, as subjects, who were healthy except for suffering from medium periodontal diseases (with a periodontal pocket depth of 3 mm or deeper but less than 6 mm), were subjected to a volunteer test similarly as in Experiment 5 except for using six types of aqueous solutions containing 0.001 to 7.5% adenosine N1-oxide and setting a test period of seven months. […]
The subjects were allowed to brush their teeth with the same toothpaste as used in Experiment 5. […] Before initiating the test, a dental hygienist under a doctor's guidance evaluated the conditions of gingivitis for each subject […] based on the same criteria as shown in Experiment 5.

[3] = 1000 mg/kg, intraperitoneal, 2 g in 100 mL D-PBS, one milliliter/head, mice of 20 g, observation for 24 hours, read-out: LD50

| SMILES | LD50 at 24 h (Acute toxicity test; [3]) [mg/kg] | solubility in solvents such as water compared to adenosine N1-oxide [1] | concentrations at which periodontal diseases are distinctly, effectively prevented and/or treated [2] [%] | LD50 at 24 h (Acute toxicity test) [mg/kg] |
| --- | --- | --- | --- | --- |
| Nc1c2ncn([C@@H]3O[C@H](CO)[C@@H](O[C@H]4O[C@H](CO)[C@@H](O)[C@H](O)[C@H]4O)[C@H]3O)c2nc[n+]1[O-] | ≥ 1000 | higher solubility | – | – |
| Nc1c2ncn([C@@H]3O[C@H](CO[C@H]4O[C@H](CO)[C@@H](O)[C@H](O)[C@H]4O)[C@@H](O)[C@H]3O)c2nc[n+]1[O-] | ≥ 1000 | higher solubility | – | – |
| Nc1c2ncn(C3OC(COP(=O)(O)OP(=O)(O)O)C(O)C3O)c2nc[n+]1[O-] (centres unmarked) [5′-adenosine diphosphate N1-oxide] | – | higher solubility | – | – |
| Nc1c2ncn([C@@H]3O[C@H](COP(=O)(O)OP(=O)(O)OP(=O)(O)O)[C@@H](O)[C@H]3O)c2nc[n+]1[O-] [5′-adenosine triphosphate N1-oxide] | – | higher solubility | – | – |
| Nc1c2ncn([C@@H]3O[C@H](CO)[C@@H](O)[C@H]3O)c2nc[n+]1[O-] [adenosine N1-oxide] | – | – | ≥ 0.5 | ≥ 1000 |
